Measured values from patent EP3878446A1, “HSD11B1 INHIBITORS FOR USE IN IMMUNOTHERAPY AND USES THEREOF” (UNIVERSITE DE GENEVE, priority 2020, dated 2021).

What was measured:
[1] = system: human peripheral blood mononuclear cell (PBMC); experiment: antigen recall assay (IFNγ secretion by CMV-stimulated PBMC, ELISA); format: cell-based; details: co-treatment: 1 µM HSD11B1 inhibitor + 1 µg/ml anti PD-1 (G4K), compared to anti-PD-1 or HSD11B1 inhibitor alone, 1 µg/ml CMV antigen, 50 ng/ml cortisone, 6 days, Fig. 1
Source text: Response to immunotherapy rely on critical biological steps including antigen presentation and T cell activation. Therefore, the therapeutic potential of combining immunotherapy with HSD11B1 inhibition was investigated in an antigen recall assay as described below. Antigen recall assay is the gold standard in vitro method to assess the bioactivity of immune checkpoint inhibitors because it measures at the same time the potential of antigen presenting cells to activate T cell and the actual T cell activation, taking into account thereby the two critical mechanisms required for an optimal response to immunotherapy. The level of IFNγ secreted in this human immune cell-based assay is considered as a good indicator of the T cells activation to immunomodulatory molecules. Cryopreserved human peripheral blood mononuclear cell (PBMC) isolated from cytomegalovirus (CMV) positive heathy donors were thawed in a 37°C water bath and seeded in round bottom 96 well plates at 2 X 10^5 cells/well in 150 µL final volume of RPMI media supplemented with 10% fetal bovin serum, 1% non-essential amino acids, 0.01M Hepes, 1% Penicilin/Streptomycin, 1% L-glutamine and 50 ng/ml cortisone). […] Plates were incubated at 37°C, 6% CO2. After 6 days, supernatants were assayed for IFNγ by ELISA (Biolegend).

[2] = system: GFP-expressing Renca cells; experiment: murine T cell-mediated tumor cell-killing assay (growth of GFP Renca cells, Incucyte imaging); format: cell-based; details: combination: 10 µM HSD11B1 inhibitor + anti-PD-1 (mouse), compared to single treatments; 200 ng/ml 11-DHC; BMDCs, OT-I CD8 T cells, SIINFEKL loaded GFP Renca cells; Fig. 2
Method: Another critical biological mechanism required for an optimal response to immunotherapy of cancer is the capacity of T cells to kill the tumor target cells. The therapeutic potential of combining immunotherapy with HSD11B1 inhibition for the treatment of cancer was therefore assessed in a murine T cell-mediated tumor cell-killing assay. Wild type C57BL/6J murine bone marrow progenitors cells were maintained with 20 ng/ml GMCSF (Peprotech) to induce differentiation into bone marrow derived dendritic cells (BMDCs) for 6 days. At day 6, 2 X 10^4 BMDCs/well together with 2 X 10^3 Renca tumor cells/well were seeded in flat bottom 96 well plate in RPMI 1640 supplemented with 10% FBS, 1% Penicillin/streptomycin, 1% L-glutamine, […] betamercaptoethanol and 0.5% of sodium pyruvate, 32 ng/ml R848 (Invivogen) and 25 µg/ml ovalbumin (Invivogen). After 24 hours, cell supernatant was removed and 1x10^5 OT-I CD8 T cells/well were added in very low endotoxin RPMI 1640 medium supplemented with 10% fetal bovine serum, 1% L-glutamine, 1% penicillin-streptomycin, 1% sodium-pyruvate, 1% glutamine, 1%, non-essential amino acids and […] beta-mercaptoethanol. After 24 hours, 5x10^3 H2kb-recombined; SEQ ID NO: 1 […] (Invivogen) loaded-GFP-expressing Renca cells/well were added. The growth of GFP Renca cells was measured and quantified in real time by cell imaging using the Incucyte technology. […]

Row | SMILES | level on IFNγ [1] | growth of tumor cells [2]
1 | CC1(C)[C@@H](OC(=O)CCC(=O)O)CC[C@]2(C)[C@H]3C(=O)C=C4[C@@H]5C[C@@](C)(C(=O)O)CC[C@]5(C)CC[C@@]4(C)[C@]3(C)CC[C@@H]12 [carbenoxolone, (2S,4aS,6aR,6aS,6bR,8aR,10S,12aS,14bR )-10-(3-carboxypropanoyloxy)-2,4a,6a,6b,9,9,12a-heptamethyl-13-oxo-3,4,5,6,6a,7,8,8a,10,11,12,14b-dodecahydro-1H-picene-2-carboxylic acid] | significantly increased | –
2 | CC(C)(O)c1cccn2c(C3(c4ccc(Cl)cc4)CC3)nnc12 [BMS-823778, 2-[3-[1-(4-chlorophenyl)cyclopropyl]-[1,2,4]triazolo[4,3-a]pyridin-8-yl]propan-2-ol] | significantly increased | inhibited the growth of tumor cells more efficiently than the single treatments
3 | O=C(O)CC1CC2(CCN(C(=O)NC3C4CC5CC(C4)CC3C5)CC2)c2c(Br)cccc21 (racemic) [10J, (+/-)-2-(7-bromo-1'-((2-adamantyl)carbamoyl)-2,3-dihydrospiro [indene-1,4'-piperidine]-3-yl) acetic acid] | significantly increased | –
